Laboratory results: article PMC6792352, “Limited Chemical Structural Diversity Found to Modulate Thyroid Hormone Receptor in the Tox21 Chemical Library” (Environmental Health Perspectives, 2019)
Structures can show the parent of a compound that is named as a salt. Residues, ends and D or L forms follow the SMILES beside them.

Assay: in vitro
Settings: rat, gh3-tre-luc cells, AC50 (uM) modified / 1000

Going from `CO[C@@]12[C@H](COC(N)=O)C3=C(C(=O)C(C)=C(N)C3=O)N1C[C@@H]1N[C@@H]12` [Mitomycin C] to `COc1cc(N)c(Cl)cc1C(=O)NC1CN2CCC1CC2` (centres unmarked) [Zacopride hydrochloride], the CC50 at 24 h rises from 2.52 µM to over 50 µM.

`NC(=O)c1cc[n+](CC2=C(C(=O)[O-])N3C(=O)[C@@H](NC(=O)Cc4cccs4)[C@H]3SC2)cc1` [Cefalonium] and `COc1ccc(C(=O)Nc2ccccc2CCC2CCCCN2C)cc1` (centres unmarked) [Encainide hydrochloride] cannot be ordered by CC50 at 24 h: over 20 µM for the first, over 50 µM for the second.

`NCCCCCCN` [1,6-Hexanediamine] and `CCCCCCCCCCCCCC` [Tetradecane] cannot be ordered by CC50 at 24 h: over 90 µM for the first, over 90 µM for the second.

Going from `CCN(CC)CCOC(=O)C1(c2ccccc2)CCCC1` [Caramiphen edisylate] to `COC(=O)[C@H](Cc1ccccc1)NC(=O)[C@@H](N)CC(=O)O` [Aspartame] (H-Asp-Phe-OMe), the CC50 at 24 h rises from 43.2 µM to over 90 µM.

`CCC1(CCC(C)C)C(=O)NC(=O)NC1=O` [Amobarbital] and `CC(C)COC(=O)COc1cc(Cl)c(Cl)cc1Cl` [Isobutyl (2,4,5-trichlorophenoxy)acetate] cannot be ordered by CC50 at 24 h: over 90 µM for the first, over 90 µM for the second.

`c1ccc(/N=N/c2ccccc2)cc1` [Azobenzene] and `S=C=Nc1ccccc1` [Phenyl isothiocyanate] cannot be ordered by CC50 at 24 h: over 90 µM for the first, over 90 µM for the second.

`Cn1c(=O)cc(Oc2ccc(F)cc2F)c2cnc(NCC(C)(C)O)nc21` [PharmaGSID_48507] and `CCOc1nc(F)cc2nc(S(=O)(=O)Nc3c(Cl)cccc3Cl)nn12` [Diclosulam] cannot be ordered by CC50 at 24 h: over 90 µM for the first, over 90 µM for the second.

Compared with `CCc1oc2ccccc2c1C(=O)c1cc(Br)c(O)c(Br)c1` [Benzbromarone], `Oc1ccc2c(c1)Cc1ccccc1-2` [2-Hydroxyfluorene] is 2-fold higher in CC50 at 24 h: 39.4 µM for the first, 77.9 µM for the second.

Going from `O=C(CCN1CCN2CCCC2C1)N1c2ccccc2Sc2ccc(Cl)cc21` (centres unmarked) [Azaclorzine] to `NCc1cccc(C2CCN(C(=O)c3ccc(C#Cc4ccccc4F)o3)CC2)c1` [AVE5638], the CC50 at 24 h falls from 14.6 µM to 6.44 µM (2.3-fold).

`C=C(C)[C@H]1CC=C(C)C(=O)C1` [d-Carvone] and `C=C(C)[C@@H]1CCC2=CC(=O)C[C@@H](C)[C@]2(C)C1` [Nootkatone] cannot be ordered by CC50 at 24 h: over 90 µM for the first, over 90 µM for the second.

Compared with `CCCCN(CCCC)C(=S)S` [Sodium dibutylcarbamodithioate], `CCCCCCOc1ccc(C(=N)N(CCCC)CCCC)c2ccccc12` [Bunamidine hydrochloride] is lower in CC50 at 24 h: over 90 µM for the first, 5.23 µM for the second.

`CC(C)(C)Cl` [t-Butylchloride] and `CCC(C)(C)C1CCC(=O)CC1` [4-(tert-Pentyl)-cyclohexanone] cannot be ordered by CC50 at 24 h: over 100 µM for the first, over 90 µM for the second.

`O=C=Nc1ccc(Cl)cc1` [4-Chlorophenyl isocyanate] and `O=C(O)c1c(Cl)ccc2cc(Cl)cnc12` [Quinclorac] cannot be ordered by CC50 at 24 h: over 90 µM for the first, over 90 µM for the second.

`Sc1nc2ccccc2s1` [2-Mercaptobenzothiazole] and `OCCCNc1ccccc1` [3-Anilinopropan-1-ol] cannot be ordered by CC50 at 24 h: over 50 µM for the first, over 50 µM for the second.

First: CN1CCC(=C2c3ccccc3CCc3sccc32)CC1 [Pizotyline]
Second: COc1ccc(CN2CCNCC2)c(OC)c1OC [Trimetazidine dihydrochloride]
The CC50 at 24 h of the first is lower: 10.6 µM for the first, over 20 µM for the second.

Compared with `O=S1(=O)CC(Cl)(Cl)C(Cl)(Cl)C1` [3,3,4,4-Tetrachlorotetrahydrothiophene 1,1-dioxide], `CC(C)(C(=O)c1cccnc1)c1cccnc1` [Metyrapone] is higher in CC50 at 24 h: 1.02 µM for the first, over 20 µM for the second.

Compared with `Cc1cc2c(C(C)C)c(O)c(O)c(C=O)c2c(O)c1-c1c(C)cc2c(C(C)C)c(O)c(O)c(C=O)c2c1O` [Gossypol], `Fc1c(F)c(F)c(Br)c(F)c1F` [Bromopentafluorobenzene] is higher in CC50 at 24 h: 8.84 µM for the first, over 90 µM for the second.

`OCC1CC2CC1C1CCC(CO)C21` (centres unmarked) [Tricyclodecanedimethanol] and `NC(=S)NNC(N)=S` [2,5-Dithiobiurea] cannot be ordered by CC50 at 24 h: over 90 µM for the first, over 90 µM for the second.

Same assay, conditions: rat, gh3-tre-luc cells, AC50 (uM) modified / 1000, Tox21_110001=Tox21_113227; viability, 1 nM T3 present, 24 h

For `CCOC(=O)C1(c2ccccc2)CCCN(C)CC1` (centres unmarked) [Ethoheptazine hydrochloride], the CC50 at 24 h was over 50 µM.

Same assay, conditions: rat, gh3-tre-luc cells, AC50 (uM) modified / 1000, Tox21_110001=Tox21_301428; viability, 1 nM T3 present, 24 h

For `COC(=O)C1(O)c2ccccc2-c2ccccc21` [Flurenol-methyl], the CC50 at 24 h was over 90 µM.
